Measured values as given in patent US20130296250A1, “METHOD FOR TREATMENT OF PSORIASIS” (priority 2011, published 2013).
The star is where a group is joined. Myristoyl = CCCCCCCCCCCCCC(=O)*

What was measured:
[1] = system: Keratinocytes derived from newborn C57BL/6 mice skin; assay: Cytokine secretion in LPS activated keratinocytes, Luminex; type: cell-based; details: peptide inhibitors, FIGS. 19 to 23
Text: Resident skin cells and immunological cells (both resident and infiltrating cells) interact in the inflammatory psoriatic process by cell-cell interactions and cytokine secretion. Thus, HO/02/10 was examined for its direct effect on the secretion of pro-inflammatory, chemoattractant and immunological pathway related cytokines form both keratinocytes and immune cells such as macrophages and dendritic cells.
The results of FIGS. 17A and 17B show the effect of HO/02/10 on cytokine secretion in keratinocytes. Keratinocytes were derived from newborn C57BL/6 mice skin. The cells were incubated for 5 days in 24 wells plates. Cells were then treated with DPBS−/−, LPS (100 ng/ml), or HO/02/10 (1 μg/ml)+LPS ([…]). Medium containing secreted cytokines was collected after 48 hr and analyzed using a Luminex system.

[2] = system: TNFα activated keratinocytes; assay: Cytokine secretion in TNFα activated keratinocytes; type: cell-based; details: peptide inhibitors, FIGS. 19 to 23
[3] = system: IL-17A activated keratinocytes; assay: Cytokine secretion in IL-17A activated keratinocytes; type: cell-based; details: peptide inhibitors, FIGS. 24 to 27
C57BL/6J mouse [4] = assay: Macrophage infiltration in wound, Iba-1 staining; type: in vivo; details: daily treatment, five days post-wounding
Procedure: The effect of MPDY-1 on macrophage infiltration was also shown by Iba-1 staining. Iba-1 is a general marker for macrophages. […] As above, a two-cm longitudinal incision was done on the upper back of a C57BL/6J mouse. Following wounding, a sterile pad was sutured to the mouse's skin. Animals were treated daily with MPDY-1 (n=6). Five days post-wounding, when inflammatory phase reaches its peak, the mice were sacrificed, skin tissues were embedded in paraffin and immunohistochemical staining was performed utilizing anti-Iba-1 antibodies.

C57BL/6J mouse [5] = assay: Macrophage activation in wound, MAC-2 staining; type: in vivo; details: daily treatment, 5 days; 1, 10 and 100 micrograms per mL
Procedure: The effect of MPDY-1 on macrophage activation was also shown by MAC-2 staining. MAC-2 is a specific marker for activated macrophages. […] A two-cm longitudinal incision was done as described above. Animals were treated daily with DPBS^−/− (Control) or MPDY-1 in the specified concentrations (n=6). After 5 days immunohistochemical staining was performed utilizing anti-MAC-2 antibodies. Bar […]. (*p(control Vs. MPDY-1 10 μg)=0.0028).

Substance | cytokine secretion from LPS activated keratinocytes [1] | cytokine secretion from TNFα activated keratinocytes [2] | cytokine secretion from IL-17A activated keratinocytes [3] | macrophage infiltration (Iba-1 positive cells per field) (C57BL/6J mouse [4]) | activation of macrophages (MAC-2 positive cells per field) (C57BL/6J mouse [5])
H-Phe-Ala-Arg-Lys-Gly-Ala-Leu-Arg-Gln-OH-acetate salt (H-FARKGALRQ-OH; also: acetate salt) [PDY-1] | decrease cytokine secretion | decrease cytokine secretion | decrease cytokine secretion |  | 
Myristoyl-Phe-Ala-Arg-Lys-Gly-Ala-Leu-Arg-Gln-OH (Myristoyl-FARKGALRQ-OH; SMILES CCCCCCCCCCCCCC(=O)N[C@@H](Cc1ccccc1)C(=O)N[C@@H](C)C(=O)N[C@@H](CCCNC(=N)N)C(=O)N[C@@H](CCCCN)C(=O)NCC(=O)N[C@@H](C)C(=O)N[C@@H](CC(C)C)C(=O)N[C@@H](CCCNC(=N)N)C(=O)N[C@@H](CCC(N)=O)C(=O)O) [MPDY-1] | decrease cytokine secretion | decrease cytokine secretion | decrease cytokine secretion | dose dependent effect | significantly inhibited
Myristoyl-Phe-Ala-Arg-Lys-Gly-Ala-Leu-OH (Myristoyl-FARKGAL-OH; SMILES CCCCCCCCCCCCCC(=O)N[C@@H](Cc1ccccc1)C(=O)N[C@@H](C)C(=O)N[C@@H](CCCNC(=N)N)C(=O)N[C@@H](CCCCN)C(=O)NCC(=O)N[C@@H](C)C(=O)N[C@@H](CC(C)C)C(=O)O) [MPDY-1 sh] | decrease cytokine secretion | decrease cytokine secretion | decrease cytokine secretion |  | 
